Results published in patent publication US20250129027A1 (APOGEE PHARMACEUTICALS, INC., priority 2023, published 2025).
Values after ≈ are worked out from the molar mass of the structure shown. Like-named read-outs stand apart in the source and are kept apart here.

Legend:
[1] = Plasma stability (LC-MS/MS, % parent compound remaining, half-life); assay type: in vitro ADME; settings: human plasma; for half-life at 1 μM: 37° C., 0-240 mins, read-out: Human Plasma Stability (t1/2, min)
Experimental: Exemplary compounds described herewith were assayed for plasma stability (various species).
Plasma was removed from deep freezer and allowed to thaw at room temperature (or at 37° C. if needed). Plasma was then centrifuged at 4,000 rpm at RT for 10 min and supernatant was collected and used for the assay: • Drug test tubes: 297 μL plasma/drug test tube, duplicate/drug. • Blank test tubes: 297 μL plasma/Blank test tube, duplicate, too. (Optional, if assay system is stable and consistent) • T0 plasma tube: […] X No. of total sample tubes+50 μL extra for T0 extraction. • (Note: equivalent proportion of solvent mixture as added in drug test tubes will be added before T0 extraction!)
Take out the pre-warmed plasma tubes from the 37° C. incubator. Add 3 μL of 100 μM stock solution (or, equivalent proportion of the solvent mixture to T0 plasma tube for T0 extraction) to each corresponding sample tubes in order, vortex gently (3×) to mix. Finish the sample tubes orderly and quickly, then transfer them to the Thermomixer (program & 37° C. ready), and start the Thermomixer. Record starting time on paper & start the timer for 15 min for the 1st sampling time point.
Now add the equivalent amount of solvent mixture to the T0 plasma tube, mix, and transfer 50 μL plasma to each of the T0 extracting tubes, vortex 20s and placed on ice. Vortex 10s again before centrifuging the samples at 14,000 rpm for 5 min at 4° C.
Repeat the above procedures at each time point (15, 30, 60, 120, 240 min) by transferring 50 μL plasma samples from the testing tubes to the corresponding extracting tubes, in the same order and time scheme as in the addition of the drug to the plasma samples at the beginning of the study.
• Kel=Slope of LN % PCR vs time
Half life (t½)=0.693/Kel (1)

human recombinant MAGL = human recombinant MAGL (Homo sapiens (Human), UniProt Q99685); test: In vitro inhibition of MAGL activity (inhibitor screening kit, 4-nitrophenylacetate); assay type: biochemical; settings: for IC50: human recombinant MAGL
human recombinant MAGL, sequence (Q99685 whole entry): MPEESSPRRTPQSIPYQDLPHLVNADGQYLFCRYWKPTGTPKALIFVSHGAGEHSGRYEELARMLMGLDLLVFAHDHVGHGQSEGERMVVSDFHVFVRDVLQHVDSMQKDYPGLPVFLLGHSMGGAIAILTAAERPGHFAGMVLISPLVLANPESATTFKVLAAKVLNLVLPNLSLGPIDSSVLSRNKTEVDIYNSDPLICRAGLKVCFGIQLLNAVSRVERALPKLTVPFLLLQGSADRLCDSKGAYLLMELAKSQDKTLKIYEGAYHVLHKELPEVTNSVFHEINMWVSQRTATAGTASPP
In short: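 Colorimetric kit assay: recombinant human MAGL hydrolyses 4-nitrophenylacetate to 4-nitrophenol, read by absorbance at 405-412 nm. Inhibition given as percentage of signal in treated versus untreated MAGL control.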

human recombinant FAAH = human recombinant FAAH (Homo sapiens (Human), UniProt O00519); test: In vitro inhibition of FAAH activity (fluorescent inhibitor screening kit, AMC arachidonoyl amide); assay type: biochemical
human recombinant FAAH, sequence (O00519 whole entry): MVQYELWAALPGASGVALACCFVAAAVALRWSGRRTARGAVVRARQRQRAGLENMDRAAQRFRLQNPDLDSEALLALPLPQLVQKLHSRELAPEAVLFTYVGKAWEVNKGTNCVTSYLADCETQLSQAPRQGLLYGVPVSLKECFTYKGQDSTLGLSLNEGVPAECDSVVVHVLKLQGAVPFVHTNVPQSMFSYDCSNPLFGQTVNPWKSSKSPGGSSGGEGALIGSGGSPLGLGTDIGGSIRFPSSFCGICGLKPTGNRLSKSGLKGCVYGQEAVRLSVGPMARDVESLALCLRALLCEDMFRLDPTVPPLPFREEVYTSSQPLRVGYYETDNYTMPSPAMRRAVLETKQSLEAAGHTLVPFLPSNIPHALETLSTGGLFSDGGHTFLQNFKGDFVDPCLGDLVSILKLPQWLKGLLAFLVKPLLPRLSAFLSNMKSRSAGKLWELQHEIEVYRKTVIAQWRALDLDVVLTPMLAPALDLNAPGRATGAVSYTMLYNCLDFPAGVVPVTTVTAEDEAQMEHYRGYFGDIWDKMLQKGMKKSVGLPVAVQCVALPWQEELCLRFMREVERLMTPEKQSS
In short: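 Fluorogenic kit assay: AMC arachidonoyl amide is cleaved by human recombinant FAAH, read at 340-360/450-465 nm. Percent inhibition versus non-treated control; IC50 values derived from multiple compound concentrations where tested.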

[2] = Aqueous solubility in PBS buffer pH 7.4 (LC-MS); assay type: physicochemical; settings: phosphate buffer, kinetic from dmso stock, PBS buffer pH 7.4, room temperature, spiked at 100 μM from DMSO stock
Experimental: Compounds as described herewith were analyzed for their aqueous solubility.
The aqueous solubility of compounds were determined using standard protocols. To illustrate the experimental protocol, the analysis of a representative compound is described. Exemplary compound of Example 158 (MW: 380.4 g/mol) was analyzed in a buffer system at specified pH (phosphate buffer, pH 7.4). This was accomplished by spiking a DMSO stock solution of the test compound at a final concentration of 100 μM in buffer.
Solubility calculation: This is a quantitative assay. The mixture at the end of the assay is filtered by 0.22 micron syringe filter and after 5× dilution in diluent, it was analyzed versus a calibration curve using LC-MS.

[3] = FAAH, values as listed in Table 5, read-out: IC50
[4] = human recombinant FAAH, read-out: Inhibition on FAAH activity (IC50)

| SMILES | IC50 (human recombinant MAGL) | IC50 (human recombinant FAAH; [4]) | further results |
| --- | --- | --- | --- |
| O=C(NC1CCCCC1)Oc1cccc(-c2cncc(-c3ccco3)c2)c1 [Example 51, 3-(5-(furan-2-yl)pyridin-3-yl)phenyl cyclohexylcarbamate] | > 10000 nM | 76.1 nM | half-life at 1 μM [1]: 8 min; IC50 (human recombinant FAAH; [3]): 76.1 nM; solubility [2]: 1.4 µM (≈ 0.507 µg/mL) |
| O=C(NC1CCCCCC1)Oc1cccc(-c2cncc(-c3cccs3)c2)c1 [Example 64, 3-(5-(thiophen-2-yl)pyridin-3-yl)phenyl cycloheptylcarbamate] | > 10000 nM | 39.1 nM | half-life at 1 μM [1]: 24 min; IC50 (human recombinant FAAH; [3]): 39.1 nM |
| O=C(NC1CCCCCC1)Oc1ccc(F)c(-c2cncc(-c3nnco3)c2)c1 [Example 194, 3-(5-(1,3,4-oxadiazol-2-yl)pyridin-3-yl)-4-fluorophenyl cycloheptylcarbamate] | > 10000 nM | 49.1 nM | half-life at 1 μM [1]: 41 min; plasma stability and/or aqueous solubility compared to reference compound URB597 ([1]; see Table 5): improved plasma stability, improved aqueous solubility, or improved plasma stability and aqueous solubility; IC50 (human recombinant FAAH; [3]): 49.1 nM |
| O=C(NCc1ccccc1)Oc1cccc(-c2cncc(-c3nnn[nH]3)c2)c1 [Example 240, 3-(5-(1H-tetrazol-5-yl)pyridin-3-yl)phenyl benzylcarbamate] | > 10000 nM | > 1000 nM | – |
| O=C(NC1CCCC1)Oc1cccc(-c2cncc(-c3nnn[nH]3)c2)c1 [Example 241, 3-(5-(1H-tetrazol-5-yl)pyridin-3-yl)phenyl cyclopentylcarbamate] | > 10000 nM | > 1000 nM | – |
| O=C(NC1CCCCC1)Oc1cccc(-c2cncc(-c3nnn[nH]3)c2)c1 [Example 242, 3-(5-(1H-tetrazol-5-yl)pyridin-3-yl)phenyl cyclohexylcarbamate] | > 10000 nM | > 1000 nM | – |
| O=C(NC1CCCCCC1)Oc1cccc(-c2cncc(-c3nnn[nH]3)c2)c1 [Example 243, 3-(5-(1H-tetrazol-5-yl)pyridin-3-yl)phenyl cycloheptylcarbamate] | > 10000 nM | > 1000 nM | – |
| CCCCCCCCNC(=O)Oc1ccc(O)c(-c2cncc(-c3nnn[nH]3)c2)c1 [Example 244, 3-(5-(1H-tetrazol-5-yl)pyridin-3-yl)-4-hydroxyphenyl octylcarbamate] | > 10000 nM | 100 to 1000 nM | – |
| O=C(NCC1CCCCC1)Oc1ccc(O)c(-c2cncc(-c3nnn[nH]3)c2)c1 [Example 245, 3-(5-(1H-tetrazol-5-yl)pyridin-3-yl)-4-hydroxyphenyl (cyclohexylmethyl)carbamate] | > 10000 nM | > 1000 nM | – |
| O=C(NCc1ccccc1)Oc1ccc(O)c(-c2cncc(-c3nnn[nH]3)c2)c1 [Example 246, 3-(5-(1H-tetrazol-5-yl)pyridin-3-yl)-4-hydroxyphenyl benzylcarbamate] | > 10000 nM | > 1000 nM | – |
| O=C(NC1CCCC1)Oc1ccc(O)c(-c2cncc(-c3nnn[nH]3)c2)c1 [Example 247, 3-(5-(1H-tetrazol-5-yl)pyridin-3-yl)-4-hydroxyphenyl cyclopentylcarbamate] | > 10000 nM | > 1000 nM | – |
| O=C(NC1CCCCC1)Oc1ccc(O)c(-c2cncc(-c3nnn[nH]3)c2)c1 [Example 248, 3-(5-(1H-tetrazol-5-yl)pyridin-3-yl)-4-hydroxyphenyl cyclohexylcarbamate] | > 10000 nM | > 1000 nM | – |
| O=C(NC1CCCCCC1)Oc1ccc(O)c(-c2cncc(-c3nnn[nH]3)c2)c1 [Example 249, 3-(5-(1H-tetrazol-5-yl)pyridin-3-yl)-4-hydroxyphenyl cycloheptylcarbamate] | > 10000 nM | > 1000 nM | – |
| CCCCCCCCNC(=O)Oc1ccc(OC)c(-c2cncc(-c3nnn[nH]3)c2)c1 [Example 250, 3-(5-(1H-tetrazol-5-yl)pyridin-3-yl)-4-methoxyphenyl octylcarbamate] | ~10000 nM | 100 to 1000 nM | – |
| COc1ccc(OC(=O)NCC2CCCCC2)cc1-c1cncc(-c2nnn[nH]2)c1 [Example 251, 3-(5-(1H-tetrazol-5-yl)pyridin-3-yl)-4-methoxyphenyl (cyclohexylmethyl)carbamate] | > 10000 nM | > 1000 nM | – |
| COc1ccc(OC(=O)NCc2ccccc2)cc1-c1cncc(-c2nnn[nH]2)c1 [Example 252, 3-(5-(1H-tetrazol-5-yl)pyridin-3-yl)-4-methoxyphenyl benzylcarbamate] | > 10000 nM | > 1000 nM | – |
| COc1ccc(OC(=O)NC2CCCC2)cc1-c1cncc(-c2nnn[nH]2)c1 [Example 253, 3-(5-(1H-tetrazol-5-yl)pyridin-3-yl)-4-methoxyphenyl cyclopentylcarbamate] | > 10000 nM | > 1000 nM | – |
| COc1ccc(OC(=O)NC2CCCCC2)cc1-c1cncc(-c2nnn[nH]2)c1 [Example 254, 3-(5-(1H-tetrazol-5-yl)pyridin-3-yl)-4-methoxyphenyl cyclohexylcarbamate] | > 10000 nM | > 1000 nM | – |
| COc1ccc(OC(=O)NC2CCCCCC2)cc1-c1cncc(-c2nnn[nH]2)c1 [Example 255, 3-(5-(1H-tetrazol-5-yl)pyridin-3-yl)-4-methoxyphenyl cycloheptylcarbamate] | > 10000 nM | > 1000 nM | – |
| O=C(NCC1CCCCC1)Oc1cccc(-c2cc(-c3nnco3)ccn2)c1 [Example 257, 3-(4-(1,3,4-oxadiazol-2-yl)pyridin-2-yl)phenyl (cyclohexylmethyl)carbamate] | > 10000 nM | 10 to 100 nM | – |
| O=C(NCc1ccccc1)Oc1cccc(-c2cc(-c3nnco3)ccn2)c1 [Example 258, 3-(4-(1,3,4-oxadiazol-2-yl)pyridin-2-yl)phenyl benzylcarbamate] | > 10000 nM | 100 to 1000 nM | – |
| O=C(NC1CCCC1)Oc1cccc(-c2cc(-c3nnco3)ccn2)c1 [Example 259, 3-(4-(1,3,4-oxadiazol-2-yl)pyridin-2-yl)phenyl cyclopentylcarbamate] | > 10000 nM | 100 to 1000 nM | – |
| CC1CCC(NC(=O)Oc2cccc(-c3cc(-c4nnco4)ccn3)c2)CC1 (stereo not drawn) [Example 261, 3-(4-(1,3,4-oxadiazol-2-yl)pyridin-2-yl)phenyl (4-methylcyclohexyl)carbamate] | > 1000 nM | 100 to 1000 nM | – |
| O=C(NC1CCCCCC1)Oc1cccc(-c2cc(-c3nnco3)ccn2)c1 [Example 262, 3-(4-(1,3,4-oxadiazol-2-yl)pyridin-2-yl)phenyl cycloheptylcarbamate] | > 1000 nM | 10 to 100 nM | – |
| CCCCCCCCNC(=O)Oc1cccc(-c2cncc(-c3nnco3)n2)c1 [Example 263, 3-(6-(1,3,4-oxadiazol-2-yl)pyrazin-2-yl)phenyl octylcarbamate] | 1000 to 10000 nM | 1 to 10 nM | – |
| O=C(NCC1CCCCC1)Oc1cccc(-c2cncc(-c3nnco3)n2)c1 [Example 264, 3-(6-(1,3,4-oxadiazol-2-yl)pyrazin-2-yl)phenyl (cyclohexylmethyl)carbamate] | ~10000 nM | 10 to 100 nM | – |
| O=C(NCc1ccccc1)Oc1cccc(-c2cncc(-c3nnco3)n2)c1 [Example 265, 3-(6-(1,3,4-oxadiazol-2-yl)pyrazin-2-yl)phenyl benzylcarbamate] | > 10000 nM | 100 to 1000 nM | – |
| O=C(NC1CCCC1)Oc1cccc(-c2cncc(-c3nnco3)n2)c1 [Example 266, 3-(6-(1,3,4-oxadiazol-2-yl)pyrazin-2-yl)phenyl cyclopentylcarbamate] | 1000 to 10000 nM | 10 to 100 nM | – |
| O=C(NC1CCCCCC1)Oc1cccc(-c2cncc(-c3nnco3)n2)c1 [Example 268, 3-(6-(1,3,4-oxadiazol-2-yl)pyrazin-2-yl)phenyl cycloheptylcarbamate] | 1000 to 10000 nM | 10 to 100 nM | – |
| O=C(Nc1cnccc1Cl)N1CCN(Cc2ccc3c(c2)OC(F)(F)O3)CC1 [JNJ-42165279, reference compound] | > 50000 nM | 106 nM | fold-selectivity over MAGL (selectivity index) (human recombinant MAGL; FAAH over MAGL): 473 times |
